According to US9969742B2, “Imidazotriazinone compounds” (Ironwood Pharmaceuticals, Inc., priority 2012, dated 2018):
Like-named read-outs stand apart in the source and are kept apart here.

What was measured:
Type in all cases: biochemical
PDE9A2 = target: T1, PDE9A2 (Homo sapiens, UniProt O76083); experiment: Phosphodiesterase enzyme screening assay, PDE9A2; conditions: 4.0 μM cGMP substrate, 1 hour at R.T., read-out: Band (PDE9A2 IC50)
T1 construct: purchased Reaction Biology Corporation, Malvern, Pa
T1 sequence (O76083 1-533 isoform O76083-2): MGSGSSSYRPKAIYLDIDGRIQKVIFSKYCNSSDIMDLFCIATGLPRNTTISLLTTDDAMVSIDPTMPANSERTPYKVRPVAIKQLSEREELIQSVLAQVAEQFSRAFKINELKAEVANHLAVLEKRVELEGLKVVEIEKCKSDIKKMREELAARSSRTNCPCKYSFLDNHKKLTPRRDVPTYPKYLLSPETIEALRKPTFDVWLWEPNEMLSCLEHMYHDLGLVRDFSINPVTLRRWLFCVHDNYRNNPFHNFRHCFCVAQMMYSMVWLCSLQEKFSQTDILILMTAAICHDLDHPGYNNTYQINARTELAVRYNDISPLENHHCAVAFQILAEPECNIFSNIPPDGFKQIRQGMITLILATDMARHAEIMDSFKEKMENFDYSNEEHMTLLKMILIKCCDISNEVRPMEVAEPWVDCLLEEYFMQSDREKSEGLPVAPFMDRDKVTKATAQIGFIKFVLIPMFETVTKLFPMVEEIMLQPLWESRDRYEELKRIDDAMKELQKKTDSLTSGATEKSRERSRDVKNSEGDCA
Procedure, shortened: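 Compounds were tested on commercial human PDE enzymes using a fluorescent cGMP substrate at 4.0 μM, incubated for one hour at room temperature. Values are means of four wells versus controls.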

PDE1A = target: T2, PDE1A (Homo sapiens, UniProt P54750); experiment: Phosphodiesterase enzyme screening assay, PDE1A
T2 construct: purchased Reaction Biology Corporation, Malvern, Pa
T2 sequence (P54750 whole entry): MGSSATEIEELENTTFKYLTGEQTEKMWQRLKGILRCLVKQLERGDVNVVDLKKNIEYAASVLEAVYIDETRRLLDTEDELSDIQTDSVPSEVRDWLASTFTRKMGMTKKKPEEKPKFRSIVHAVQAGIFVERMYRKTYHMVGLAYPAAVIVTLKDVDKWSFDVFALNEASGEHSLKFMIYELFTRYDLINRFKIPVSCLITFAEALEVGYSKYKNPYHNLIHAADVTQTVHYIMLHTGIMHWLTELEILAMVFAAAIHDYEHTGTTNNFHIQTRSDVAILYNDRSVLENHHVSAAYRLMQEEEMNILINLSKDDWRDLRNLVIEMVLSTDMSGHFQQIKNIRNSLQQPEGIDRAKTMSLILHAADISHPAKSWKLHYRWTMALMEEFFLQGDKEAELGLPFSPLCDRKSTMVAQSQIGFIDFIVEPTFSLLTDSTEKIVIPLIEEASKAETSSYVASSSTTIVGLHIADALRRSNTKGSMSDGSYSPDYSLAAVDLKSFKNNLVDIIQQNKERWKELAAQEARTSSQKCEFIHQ
Description: (§1) Compounds of the invention were screened against PDE1A, PDE1B, PDE2A, PDE3A, PDE3B, PDE4A1A, PDE4B1, PDE4D3, PDE5A1, PDE6C, PDE7A, PDE8A1, PDE9A2, PDE10A2 AND PDE11A isoforms of the phosphodiesterase enzyme to determine activity and overall selectivity through comparative analysis. […] Where 8-methoxy-IBMX and Zaprinast were used as reference inhibitors.
(§2) The phosphodiesterase enzyme isoforms were obtained from a commercial retailer (Reaction Biology Corporation, Malvern, Pa.) for use in the instant screening assay.
(§3) The analysis was completed using the Caliper LabChip 3000 and a 12-sipper LabChip. LabChip assays are separations-based, meaning that the product and substrate are electrophoretically separated, thereby minimizing interferences and yielding the highest data quality available on any screening platform. […] High Z′ values, few false positives, few false negatives and analytical quality reproducibility are the reasons cited for the increasing reliance on the LabChip assays.
(§4) The off-chip incubation mobility-shift phosphodiesterase assay uses a microfluidic chip to measure the conversion of a fluorescent cyclic AMP substrate to a 5′-AMP product, or a cyclic GMP substrate to a 5′-GMP product. The reaction mixture, from a microtiter plate well, is introduced through a capillary sipper onto the chip, where the fluorescent substrate and product are separated by electrophoresis and detected via laser-induced fluorescence. […] The precision of microfluidics allows researchers to detect subtle interactions between drug candidates and therapeutic targets.
(§5) Reactions were carried out in 100 mM HEPES (pH 7.5), 5 mM MgCl2, 1 mM DTT, 0.003% Brij, 4.0 μM cGMP substrate. The reaction was started by addition of cGMP or cAMP and incubated for 1 hour at R.T. The reaction was terminated by the addition of stop buffer containing 100 mM HEPES (pH 7.5), 15 mM EDTA, 0.015% Brij-35, 5% DMSO. Cyclic AMP/GMP substrate and 5′-AMP/5′-GMP product were separated by charge using electrophoretic mobility shift. Product formed was compared to control wells to determine inhibition or enhancement of enzyme activity.
(§6) Data points were averages of quadruplicate wells and error bars represented the SEM for each point.

PDE1B = target: T3, PDE1B (Homo sapiens, UniProt Q01064); experiment: Phosphodiesterase enzyme screening assay, PDE1B
T3 construct: purchased Reaction Biology Corporation, Malvern, Pa
T3 sequence (Q01064 whole entry): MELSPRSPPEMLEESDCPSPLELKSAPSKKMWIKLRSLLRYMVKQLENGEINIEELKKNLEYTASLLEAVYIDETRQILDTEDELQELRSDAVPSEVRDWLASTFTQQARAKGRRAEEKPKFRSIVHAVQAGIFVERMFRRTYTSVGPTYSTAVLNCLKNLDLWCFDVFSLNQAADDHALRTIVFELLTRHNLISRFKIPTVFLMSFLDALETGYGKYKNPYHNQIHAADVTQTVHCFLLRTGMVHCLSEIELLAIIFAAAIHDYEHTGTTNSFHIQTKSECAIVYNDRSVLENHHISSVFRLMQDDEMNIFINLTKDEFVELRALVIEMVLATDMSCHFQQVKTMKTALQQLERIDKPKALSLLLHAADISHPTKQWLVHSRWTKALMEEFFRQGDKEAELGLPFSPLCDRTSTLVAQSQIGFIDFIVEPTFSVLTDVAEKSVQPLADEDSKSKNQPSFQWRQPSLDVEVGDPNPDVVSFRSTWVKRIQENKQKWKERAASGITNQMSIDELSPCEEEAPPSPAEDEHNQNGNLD
Description: as §1, §2, §3, §4, §5, §6

[1] = Table 1, ratio of IC50 values, value greater than 1 indicates greater selectivity for PDE9A2
[2] = ratio of IC50 values PDE1A / PDE9A2, value greater than 1 = greater selectivity for PDE9A2
[3] = ratio of IC50 values PDE1B / PDE9A2, value greater than 1 = greater selectivity for PDE9A2

Structure (SMILES)	IC50 (PDE9A2; Table 1, 10 concentrations) [µM]	PDE1A selectivity (versus PDE9A2) (PDE1A; [1])	PDE1B selectivity (versus PDE9A2) (PDE1B; [1])	IC50 (PDE9A2) [µM]	PDE1A selectivity (versus PDE9A2) (PDE1A; [2])	PDE1B selectivity (versus PDE9A2) (PDE1B; [3])
CC1CN(Cc2cc(Cl)ccc2Cl)CC1c1nn2c(C3CCOCC3)ncc2c(=O)[nH]1 (single isomer, unassigned; (+)) [(+)-2-((3,4-trans)-1-(2,5-dichlorobenzyl)-4-methylpyrrolidin-3-yl)-7-(tetrahydro-2H-pyran-4-yl)imidazo[5,1-f][1,2,4]triazin-4(3H)-one]	< 1	274	90			
CC1CN(Cc2cc(F)ccc2F)CC1c1nn2c(C3CCOCC3)ncc2c(=O)[nH]1 (single isomer, unassigned; (+)) [(+)-2-((3,4-trans)-1-(2,5-difluorobenzyl)-4-methylpyrrolidin-3-yl)-7-(tetrahydro-2H-pyran-4-yl)imidazo[5,1-f][1,2,4]triazin-4(3H)-one]	< 1	97	118			
CC1CN(Cc2ccccc2N(C)C)CC1c1nn2c(C3CCOCC3)ncc2c(=O)[nH]1 (single isomer, unassigned; (+)) [(+)-2-((3,4-trans)-1-(2-(dimethylamino)benzyl)-4-methylpyrrolidin-3-yl)-7-(tetrahydro-2H-pyran-4-yl)imidazo[5,1-f][1,2,4]triazin-4(3H)-one]	< 1	363	279			
CC1CN(Cc2ccccc2Br)CC1c1nn2c(C3CCOCC3)ncc2c(=O)[nH]1 (single isomer, unassigned; (+)) [(+)-2-((3,4-trans)-1-(2-bromobenzyl)-4-methylpyrrolidin-3-yl)-7-(tetrahydro-2H-pyran-4-yl)imidazo[5,1-f][1,2,4]triazin-4(3H)-one]	< 1	104	28			
CC1CN(Cc2c(F)ccc(F)c2Cl)CC1c1nn2c(C3CCOCC3)ncc2c(=O)[nH]1 (single isomer, unassigned; (+)) [(+)-2-((3,4-trans)-1-(2-chloro-3,6-difluorobenzyl)-4-methylpyrrolidin-3-yl)-7-(tetrahydro-2H-pyran-4-yl)imidazo[5,1-f][1,2,4]triazin-4(3H)-one]				< 1	118	231
CC1CN(Cc2cc(F)ccc2Cl)CC1c1nn2c(C3CCOCC3)ncc2c(=O)[nH]1 (single isomer, unassigned; (+)) [(+)-2-((3,4-trans)-1-(2-chloro-5-fluorobenzyl)-4-methylpyrrolidin-3-yl)-7-(tetrahydro-2H-pyran-4-yl)imidazo[5,1-f][1,2,4]triazin-4(3H)-one]				< 1	177	73
CC1CN(Cc2c(F)cccc2Cl)CC1c1nn2c(C3CCOCC3)ncc2c(=O)[nH]1 (single isomer, unassigned; (+)) [(+)-2-((3,4-trans)-1-(2-chloro-6-fluorobenzyl)-4-methylpyrrolidin-3-yl)-7-(tetrahydro-2H-pyran-4-yl)imidazo[5,1-f][1,2,4]triazin-4(3H)-one]				< 1	196	252
CC1CN(Cc2ccccc2Cl)CC1c1nn2c(C3CCOCC3)ncc2c(=O)[nH]1 (single isomer, unassigned; (+)) [(+)-2-((3,4-trans)-1-(2-chlorobenzyl)-4-methylpyrrolidin-3-yl)-7-(tetrahydro-2H-pyran-4-yl)imidazo[5,1-f][1,2,4]triazin-4(3H)-one]	< 1	92	48			
COc1ccc(F)c(CN2CC(C)C(c3nn4c(C5CCOCC5)ncc4c(=O)[nH]3)C2)c1 (single isomer, unassigned; (+)) [(+)-2-((3,4-trans)-1-(2-fluoro-5-methoxybenzyl)-4-methylpyrrolidin-3-yl)-7-(tetrahydro-2H-pyran-4-yl)imidazo[5,1-f][1,2,4]triazin-4(3H)-one]	< 1	340	255			
CC1CN(Cc2ccccc2F)CC1c1nn2c(C3CCOCC3)ncc2c(=O)[nH]1 (single isomer, unassigned; (+)) [(+)-2-((3,4-trans)-1-(2-fluorobenzyl)-4-methylpyrrolidin-3-yl)-7-(tetrahydro-2H-pyran-4-yl)imidazo[5,1-f][1,2,4]triazin-4(3H)-one]	< 1	300	442			
COc1ccccc1CN1CC(C)C(c2nn3c(C4CCOCC4)ncc3c(=O)[nH]2)C1 (single isomer, unassigned; (+)) [(+)-2-((3,4-trans)-1-(2-methoxybenzyl)-4-methylpyrrolidin-3-yl)-7-(tetrahydro-2H-pyran-4-yl)imidazo[5,1-f][1,2,4]triazin-4(3H)-one]	< 1	337	230			
CC1CN(Cc2ccc(Cl)c(Cl)c2)CC1c1nn2c(C3CCOCC3)ncc2c(=O)[nH]1 (single isomer, unassigned; (+)) [(+)-2-((3,4-trans)-1-(3,4-dichlorobenzyl)-4-methylpyrrolidin-3-yl)-7-(tetrahydro-2H-pyran-4-yl)imidazo[1,5-f][1,2,4]triazin-4(3H)-one]	< 1	1297	2627			
CC1CN(Cc2cc(Cl)cc(Cl)c2)CC1c1nn2c(C3CCOCC3)ncc2c(=O)[nH]1 (single isomer, unassigned; (+)) [(+)-2-((3,4-trans)-1-(3,5-dichlorobenzyl)-4-methylpyrrolidin-3-yl)-7-(tetrahydro-2H-pyran-4-yl)imidazo[5,1-f][1,2,4]triazin-4(3H)-one]	< 1	93	92			
CC1CN(Cc2cc(F)cc(F)c2)CC1c1nn2c(C3CCOCC3)ncc2c(=O)[nH]1 (single isomer, unassigned; (+)) [(+)-2-((3,4-trans)-1-(3,5-difluorobenzyl)-4-methylpyrrolidin-3-yl)-7-(tetrahydro-2H-pyran-4-yl)imidazo[1,5-f][1,2,4]triazin-4(3H)-one]	< 1	1710	1043			
CC1CN(Cc2cccc(-n3cccn3)c2)CC1c1nn2c(C3CCOCC3)ncc2c(=O)[nH]1 (single isomer, unassigned; (+)) [(+)-2-((3,4-trans)-1-(3-(1H-pyrazol-1-yl)benzyl)-4-methylpyrrolidin-3-yl)-7-(tetrahydro-2H-pyran-4-yl)imidazo[5,1-f][1,2,4]triazin-4(3H)-one]	< 1	612	1490			
CC1CN(Cc2cccc(N(C)C)c2)CC1c1nn2c(C3CCOCC3)ncc2c(=O)[nH]1 (single isomer, unassigned; (+)) [(+)-2-((3,4-trans)-1-(3-(dimethylamino)benzyl)-4-methylpyrrolidin-3-yl)-7-(tetrahydro-2H-pyran-4-yl)imidazo[5,1-f][1,2,4]triazin-4(3H)-one]	< 1	680	923			
CC1CN(Cc2cccc(Br)c2)CC1c1nn2c(C3CCOCC3)ncc2c(=O)[nH]1 (single isomer, unassigned; (+)) [(+)-2-((3,4-trans)-1-(3-bromobenzyl)-4-methylpyrrolidin-3-yl)-7-(tetrahydro-2H-pyran-4-yl)imidazo[5,1-f][1,2,4]triazin-4(3H)-one]	< 1	243	92			
CC1CN(Cc2ccc(F)c(Cl)c2)CC1c1nn2c(C3CCOCC3)ncc2c(=O)[nH]1 (single isomer, unassigned; (+)) [(+)-2-((3,4-trans)-1-(3-chloro-4-fluorobenzyl)-4-methylpyrrolidin-3-yl)-7-(tetrahydro-2H-pyran-4-yl)imidazo[5,1-f][1,2,4]triazin-4(3H)-one]				< 1	604	430
